Where “and” joins values, the source holds several entries; their conditions need not be identical. Equal entries are not always repeated.
Tested on: Rattus norvegicus
Settings: short-term, duration: 28 days, oral, gavage, Sprague-Dawley

## Cc1cccc(Nc2cc(Cl)nc(SCC(=O)O)n2)c1C [[4-Chloro-6-(2,3-xylidino)-2-pyrimidinylthio]acetic acid]
F, Clinical chemistry_Alanine aminotransferase
  LOEL: 25 mg/kg-day
F, Clinical chemistry_Albumin
  LOEL: 6.25 mg/kg-day
F, Clinical chemistry_Albumin/globulin ratio
  LOEL: 6.25 mg/kg-day
F, Clinical chemistry_Alkaline phosphatase
  LOEL: 6.25 mg/kg-day
F, Clinical chemistry_Aspartate aminotransferase
  LOEL: 25 mg/kg-day
F, Clinical chemistry_Cholesterol
  NOEL: 25 mg/kg-day
F, Clinical chemistry_Creatinine kinase
  NOEL: 25 mg/kg-day
F, Clinical chemistry_Direct bilirubin
  NOEL: 25 mg/kg-day
F, Clinical chemistry_Free thyroxine
  NOEL: 25 mg/kg-day
F, Clinical chemistry_Globulin
  LOEL: 6.25 mg/kg-day
F, Clinical chemistry_Indirect bilirubin
  NOEL: 25 mg/kg-day
F, Clinical chemistry_Sorbitol dehydrogenase
  LOEL: 6.25 mg/kg-day
F, Clinical chemistry_T bilirubin
  NOEL: 25 mg/kg-day
F, Clinical chemistry_Testosterone
  LOEL: 6.25 mg/kg-day
F, Clinical chemistry_Thyroid stimulating hormone
  LOEL: 6.25 mg/kg-day
F, Clinical chemistry_Total bile acids
  NOEL: 25 mg/kg-day
F, Clinical chemistry_Total bilirubin
  NOEL: 25 mg/kg-day
F, Clinical chemistry_Total protein
  LOEL: 12.5 mg/kg-day
F, Clinical chemistry_Total thyroxine
  NOEL: 25 mg/kg-day
F, Clinical chemistry_Total triiodothyronine
  LOEL: 12.5 mg/kg-day and 6.25 mg/kg-day
F, Clinical chemistry_Triglycerides
  NOEL: 25 mg/kg-day
F, Gene expression_Acox1
  LOEL: 6.25 mg/kg-day
F, Gene expression_Cyp2b1
  LOEL: 6.25 mg/kg-day
F, Gene expression_Cyp2b2
  LOEL: 6.25 mg/kg-day
F, Gene expression_Cyp4a1
  LOEL: 6.25 mg/kg-day
F, Hematology_Erythrocytes
  NOEL: 25 mg/kg-day
F, Hematology_Hematocrit
  NOEL: 25 mg/kg-day
F, Hematology_Hemoglobin
  NOEL: 25 mg/kg-day
F, Hematology_Leukocytes
  NOEL: 25 mg/kg-day
F, Hematology_Mean corpuscular hemoglobin concentration
  NOEL: 25 mg/kg-day
F, Hematology_Mean corpuscular volume
  NOEL: 25 mg/kg-day
F, Hematology_Platelets
  NOEL: 25 mg/kg-day
F, Hematology_Reticulocytes
  NOEL: 25 mg/kg-day
F, Hematology_S. neutrophils
  NOEL: 25 mg/kg-day
F, Nonneoplastic effects_Bone marrow - Hypocellularity
  NOEL: 25 mg/kg-day
F, Nonneoplastic effects_Kidney - Papilla, necrosis
  NOEL: 25 mg/kg-day
F, Nonneoplastic effects_Liver - Hepatocyte, Necrosis
  NOEL: 25 mg/kg-day
F, Nonneoplastic effects_Liver - Hepatocyte, cytoplasmic alteration
  LOEL: 6.25 mg/kg-day
F, Nonneoplastic effects_Liver - Hepatocyte, hypertrophy
  LOEL: 25 mg/kg-day
F, Nonneoplastic effects_Liver - Hepatocyte, vacuolization cytoplasmic
  NOEL: 25 mg/kg-day
F, Nonneoplastic effects_Liver - Necrosis
  NOEL: 25 mg/kg-day
F, Nonneoplastic effects_Nose - Olfactory epithelium, degeneration
  NOEL: 25 mg/kg-day
F, Nonneoplastic effects_Nose - Olfactory epithelium, hyperplasia
  NOEL: 25 mg/kg-day
F, Nonneoplastic effects_Nose - Olfactory epithelium, inflammation, suppurative
  NOEL: 25 mg/kg-day
F, Nonneoplastic effects_Nose - Olfactory epithelium, necrosis
  NOEL: 25 mg/kg-day
F, Nonneoplastic effects_Spleen - Extramedullary hematopoiesis, decreased
  NOEL: 25 mg/kg-day
F, Nonneoplastic effects_Stomach, forestomach - Epithelium, hyperplasia
  NOEL: 25 mg/kg-day
F, Nonneoplastic effects_Thymus - Atrophy
  NOEL: 25 mg/kg-day
F, Organ weights_Heart - Absolute
  NOEL: 25 mg/kg-day
F, Organ weights_Heart - Relative
  NOEL: 25 mg/kg-day
F, Organ weights_Liver - Absolute
  LOEL: 6.25 mg/kg-day
F, Organ weights_Liver - Relative
  LOEL: 6.25 mg/kg-day
F, Organ weights_Lung - Absolute
  NOEL: 25 mg/kg-day
F, Organ weights_Lung - Relative
  NOEL: 25 mg/kg-day
F, Organ weights_R. adrenal gland - Absolute
  NOEL: 25 mg/kg-day
F, Organ weights_R. adrenal gland - Relative
  NOEL: 25 mg/kg-day
F, Organ weights_R. kidney - Absolute
  LOEL: 6.25 mg/kg-day
F, Organ weights_R. kidney - Relative
  LOEL: 6.25 mg/kg-day
F, Organ weights_Spleen - Absolute
  NOEL: 25 mg/kg-day
F, Organ weights_Spleen - Relative
  NOEL: 25 mg/kg-day
F, Organ weights_Thymus - Absolute
  NOEL: 25 mg/kg-day
F, Organ weights_Thymus - Relative
  NOEL: 25 mg/kg-day
F, Organ weights_Thyroid gland - Absolute
  NOEL: 25 mg/kg-day
F, Organ weights_Thyroid gland - Relative
  NOEL: 25 mg/kg-day
F, Reproductive toxicity_Altered estrous cyclicity
  LOEL: 6.25 mg/kg-day
F, Survival rates
  NOEL: 25 mg/kg-day
F, body weight
  NOEL: 25 mg/kg-day
M, Clinical chemistry_Alanine aminotransferase
  LOEL: 6.25 mg/kg-day
M, Clinical chemistry_Albumin
  LOEL: 6.25 mg/kg-day
M, Clinical chemistry_Albumin/globulin ratio
  LOEL: 6.25 mg/kg-day
M, Clinical chemistry_Alkaline phosphatase
  LOEL: 6.25 mg/kg-day
M, Clinical chemistry_Aspartate aminotransferase
  LOEL: 25 mg/kg-day
M, Clinical chemistry_Cholesterol
  LOEL: 6.25 mg/kg-day
M, Clinical chemistry_Creatinine kinase
  NOEL: 25 mg/kg-day
M, Clinical chemistry_Direct bilirubin
  LOEL: 25 mg/kg-day
M, Clinical chemistry_Free thyroxine
  LOEL: 6.25 mg/kg-day
M, Clinical chemistry_Globulin
  LOEL: 6.25 mg/kg-day
M, Clinical chemistry_Indirect bilirubin
  NOEL: 25 mg/kg-day
M, Clinical chemistry_Sorbitol dehydrogenase
  LOEL: 6.25 mg/kg-day
M, Clinical chemistry_T bilirubin
  NOEL: 25 mg/kg-day
M, Clinical chemistry_Testosterone
  LOEL: 25 mg/kg-day
M, Clinical chemistry_Thyroid stimulating hormone
  LOEL: 25 mg/kg-day
M, Clinical chemistry_Total bile acids
  LOEL: 6.25 mg/kg-day
M, Clinical chemistry_Total bilirubin
  NOEL: 25 mg/kg-day
M, Clinical chemistry_Total protein
  LOEL: 6.25 mg/kg-day
M, Clinical chemistry_Total thyroxine
  LOEL: 6.25 mg/kg-day
M, Clinical chemistry_Total triiodothyronine
  NOEL: 25 mg/kg-day
M, Clinical chemistry_Triglycerides
  NOEL: 25 mg/kg-day
M, Gene expression_Acox1
  LOEL: 6.25 mg/kg-day
M, Gene expression_Acyl-CoA oxidase
  LOEL: 6.25 mg/kg-day
M, Gene expression_Altered sperm parameters
  LOEL: 6.25 mg/kg-day
M, Gene expression_Cyp2b1
  LOEL: 6.25 mg/kg-day
M, Gene expression_Cyp2b2
  LOEL: 6.25 mg/kg-day
M, Gene expression_Cyp4a1
  LOEL: 6.25 mg/kg-day
M, Hematology_Erythrocytes
  NOEL: 25 mg/kg-day
M, Hematology_Hematocrit
  NOEL: 25 mg/kg-day
M, Hematology_Hemoglobin
  NOEL: 25 mg/kg-day
M, Hematology_Leukocytes
  NOEL: 25 mg/kg-day
M, Hematology_Mean corpuscular hemoglobin concentration
  NOEL: 25 mg/kg-day
M, Hematology_Mean corpuscular volume
  NOEL: 25 mg/kg-day
M, Hematology_Platelets
  NOEL: 25 mg/kg-day
M, Hematology_Reticulocytes
  NOEL: 25 mg/kg-day
M, Hematology_S. neutrophils
  NOEL: 25 mg/kg-day
M, Nonneoplastic effects_Bone marrow - Hypocellularity
  NOEL: 25 mg/kg-day
M, Nonneoplastic effects_Epididymis - Duct, exfoliated germ cell
  NOEL: 25 mg/kg-day
M, Nonneoplastic effects_Epididymis - Epithelium, apoptosis
  NOEL: 25 mg/kg-day
M, Nonneoplastic effects_Epididymis - Hypospermia
  NOEL: 25 mg/kg-day
M, Nonneoplastic effects_Forestomach - Epithelium, hyperplasia
  NOEL: 25 mg/kg-day
M, Nonneoplastic effects_Forestomach - Inflammation, chronic active
  NOEL: 25 mg/kg-day
M, Nonneoplastic effects_Kidney - Nephropathy, chronic progressive
  NOEL: 25 mg/kg-day
M, Nonneoplastic effects_Kidney - Papilla, necrosis
  NOEL: 25 mg/kg-day
M, Nonneoplastic effects_Liver - Hepatocyte, Necrosis
  NOEL: 25 mg/kg-day
M, Nonneoplastic effects_Liver - Hepatocyte, cytoplasmic alteration
  LOEL: 6.25 mg/kg-day
M, Nonneoplastic effects_Liver - Hepatocyte, hypertrophy
  LOEL: 6.25 mg/kg-day
M, Nonneoplastic effects_Liver - Hepatocyte, vacuolization cytoplasmic
  NOEL: 25 mg/kg-day
M, Nonneoplastic effects_Liver - Necrosis
  NOEL: 25 mg/kg-day
M, Nonneoplastic effects_Lymph nodes - Mandibular, atrophy
  NOEL: 25 mg/kg-day
M, Nonneoplastic effects_Lymph nodes - Mesenteric, atrophy
  NOEL: 25 mg/kg-day
M, Nonneoplastic effects_Nose - Olfactory epithelium, degeneration
  NOEL: 25 mg/kg-day
M, Nonneoplastic effects_Nose - Olfactory epithelium, hyperplasia
  NOEL: 25 mg/kg-day
M, Nonneoplastic effects_Nose - Olfactory epithelium, inflammation, suppurative
  NOEL: 25 mg/kg-day
M, Nonneoplastic effects_Nose - Olfactory epithelium, necrosis
  NOEL: 25 mg/kg-day
M, Nonneoplastic effects_Nose - Respiratory epithelium, hyperplasia
  NOEL: 25 mg/kg-day
M, Nonneoplastic effects_Nose - Respiratory epithelium, inflammation, chronic active
  NOEL: 25 mg/kg-day
M, Nonneoplastic effects_Spleen - Atrophy
  NOEL: 25 mg/kg-day
M, Nonneoplastic effects_Spleen - Extramedullary hematopoiesis, decreased
  NOEL: 25 mg/kg-day
M, Nonneoplastic effects_Spleen - Extramedullary hematopoiesis, increased
  NOEL: 25 mg/kg-day
M, Nonneoplastic effects_Stomach, forestomach - Epithelium, hyperplasia
  NOEL: 25 mg/kg-day
M, Nonneoplastic effects_Testes - Germinal epithelium, degeneration
  NOEL: 25 mg/kg-day
M, Nonneoplastic effects_Testes - Interstitial cell, atrophy
  NOEL: 25 mg/kg-day
M, Nonneoplastic effects_Testes - Seminiferous tubule, spermatid retention
  NOEL: 25 mg/kg-day
M, Nonneoplastic effects_Thymus - Atrophy
  NOEL: 25 mg/kg-day
M, Nonneoplastic effects_Thymus - Lymphocyte, apoptosis
  NOEL: 25 mg/kg-day
M, Nonneoplastic effects_Thyroid gland - Follicular cell hypertrophy
  NOEL: 25 mg/kg-day
M, Organ weights_Heart - Absolute
  LOEL: 25 mg/kg-day
M, Organ weights_Heart - Relative
  NOEL: 25 mg/kg-day
M, Organ weights_Liver - Absolute
  LOEL: 6.25 mg/kg-day
M, Organ weights_Liver - Relative
  LOEL: 6.25 mg/kg-day
M, Organ weights_Lung - Absolute
  NOEL: 25 mg/kg-day
M, Organ weights_Lung - Relative
  NOEL: 25 mg/kg-day
M, Organ weights_R. adrenal gland - Absolute
  NOEL: 25 mg/kg-day
M, Organ weights_R. adrenal gland - Relative
  NOEL: 25 mg/kg-day
M, Organ weights_R. kidney - Absolute
  LOEL: 6.25 mg/kg-day
M, Organ weights_R. kidney - Relative
  LOEL: 6.25 mg/kg-day
M, Organ weights_R. testis - Absolute
  NOEL: 25 mg/kg-day
M, Organ weights_Spleen - Absolute
  LOEL: 6.25 mg/kg-day
M, Organ weights_Spleen - Relative
  NOEL: 25 mg/kg-day
M, Organ weights_Thymus - Absolute
  NOEL: 25 mg/kg-day
M, Organ weights_Thymus - Relative
  NOEL: 25 mg/kg-day
M, Organ weights_Thyroid gland - Absolute
  NOEL: 25 mg/kg-day
M, Reproductive toxicity_Altered sperm parameters
  LOEL: 6.25 mg/kg-day
M, Survival rates
  NOEL: 25 mg/kg-day
